Measurements as given in patent US11452775B2, “Detection of arginine methylation of EGFR for prediction of resistance to therapy” (Board of Regents, The University of Texas System, priority 2013, dated 2022).

What was measured:
SKCO1 and GEO cells = test: Cell proliferation assay with or without gefitinib; assay type: cell-based; details: PRMT1-overexpressing and vector control cells
Source text: (§1) FIGS. 1A-F. PRMT1-mediated cell proliferation and colony formation are EGFR signaling dependent. FIG. 1A. Cell proliferation assay of SKCO1 (left) and GEO (right) cells exogenously expressing PRMT1, PRMT1 shRNA, and control vector. In the top graphs, the top lines represent PRMT1 and the bottom lines represent Vector. In the bottom graphs, the top lines represent Vector and the bottom lines represent PRMT1 shRNA. P<0.05, t-test. FIG. 1B. Soft agar assay of SKCO1 cells exogenously expressing PRMT1, PRMT1 shRNA and control vector. Representative images from the anchorage-independent growth assay are shown above. *P<0.05, **P<0.005, t-test. FIG. 1C. Cell proliferation assay of SKCO1 (top) and GEO (bottom) cells expressing PRMT1 or vector control with or without gefitinib treatment. In both graphs, the top solid lines represent PRMT1 and the bottom solid lines represent Vector. In the top graph, the top dashed line represents PRMT1+gefitinib and the bottom dashed line represents Vector+gefitinib. P<0.05, t-test. FIG. 1D. Soft agar assay of SKCO1 exogenously expressing PRMT1 and control vector with or without gefitinib treatment. **P<0.005, t-test. FIG. 1E. […] All quantitative data were generated from a minimum of three replicates. Data are expressed as mean±s.d.
Cells were then trypsinized and cell numbers counted on a daily basis.

SKCO1 cells = test: Anchorage-independent growth (soft agar) assay for colony formation with or without gefitinib; assay type: cell-based; details: PRMT1-overexpressing and vector control cells
Source text: as §1, with “1D.” for “1D. Soft agar assay of SKCO1 exogenously expressing PRMT1 and control vector with or without gefitinib treatment. **P<0.005, t-test. FIG. 1E.”
The base layer of cell growth matrix containing DMEM/F12 medium, 10% FBS, and 0.5% agar was paved in 6-well plates (1.5 ml per well). […] Colonies with a diameter larger than 0.5 mm were counted.

In the case of `COc1cc2ncnc(Nc3ccc(F)c(Cl)c3)c2cc1OCCCN1CCOCC1` [gefitinib], the cell proliferation (SKCO1 and GEO cells) is reported as “significantly inhibited” and the colony formation (SKCO1 cells) is reported as “significantly inhibited”.
